The source made the active and inactive calls.
Experiments:
[1] = half-maximal inhibitory concentration for glucagon-like peptide-1 release, STC-1 cell line, dose-response (AID 1117345); format: functional, cell-based
[2] = Glucagon-like peptide 1 release potency, NCI-H716 cell line, dose-response, half-maximal inhibitory concentration (AID 1117344); format: functional, cell-based
[3] = Dose-response inhibition of insulin secretion in a rat insulinoma line at 5 mM glucose (AID 1117331); format: functional, cell-based; settings: INS-1E
[4] = HepG2 cell cytotoxicity, dose response, cytotoxicity control, cherry-picked samples (AID 1159577); format: functional, cell-based
[5] = P. falciparum Dd2 growth inhibitors, dose response, SYBR Green, cherry-picked samples (AID 1159567); format: functional, cell-based
[6] = Mtb BioA inhibitors by displacement, dose response, biochemical, coupled fluorescence displacement, 20-point, dry powder (AID 743357); format: functional
[7] = target: T1, Streptokinase A (Streptococcus pyogenes serotype M1, UniProt P10520); test: S. pyogenes streptokinase expression inhibitors, potency, dose response, plasminogen activation absorbance, OD405 (AID 1914); format: functional, Streptococcus pyogenes M1 GAS;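 further: secreted streptokinase activity via plasminogen activation per viability signal from cell pellet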
T1 sequence (P10520 whole entry): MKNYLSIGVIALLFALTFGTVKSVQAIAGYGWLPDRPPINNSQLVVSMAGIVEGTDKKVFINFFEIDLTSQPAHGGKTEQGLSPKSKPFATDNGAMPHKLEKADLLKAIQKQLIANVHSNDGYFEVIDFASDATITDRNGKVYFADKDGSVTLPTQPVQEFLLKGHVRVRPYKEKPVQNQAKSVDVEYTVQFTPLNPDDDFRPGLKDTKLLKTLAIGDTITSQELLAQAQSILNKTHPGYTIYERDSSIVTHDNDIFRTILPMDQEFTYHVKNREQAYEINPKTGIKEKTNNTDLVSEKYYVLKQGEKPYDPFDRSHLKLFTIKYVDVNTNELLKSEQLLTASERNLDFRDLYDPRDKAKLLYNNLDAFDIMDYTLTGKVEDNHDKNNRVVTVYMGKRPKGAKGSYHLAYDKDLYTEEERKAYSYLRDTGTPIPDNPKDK

[8] = tested on: Streptococcus; test: Group A Streptococcus viability loss, dose response, counter-screen for streptokinase expression inhibitor project, luminescence, BacTiterGlo (AID 1915); format: functional, organism-based;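 further: potency for reduction of bacterial viability or growth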
[9] = target: T2, Zinc finger protein mex-5 (Caenorhabditis elegans, UniProt Q9XUB2); test: MEX-5/TCR-2 RNA interaction inhibitors, dose response, biochemical, C. elegans, fluorescence polarization (AID 1960)
T2 sequence (Q9XUB2 whole entry): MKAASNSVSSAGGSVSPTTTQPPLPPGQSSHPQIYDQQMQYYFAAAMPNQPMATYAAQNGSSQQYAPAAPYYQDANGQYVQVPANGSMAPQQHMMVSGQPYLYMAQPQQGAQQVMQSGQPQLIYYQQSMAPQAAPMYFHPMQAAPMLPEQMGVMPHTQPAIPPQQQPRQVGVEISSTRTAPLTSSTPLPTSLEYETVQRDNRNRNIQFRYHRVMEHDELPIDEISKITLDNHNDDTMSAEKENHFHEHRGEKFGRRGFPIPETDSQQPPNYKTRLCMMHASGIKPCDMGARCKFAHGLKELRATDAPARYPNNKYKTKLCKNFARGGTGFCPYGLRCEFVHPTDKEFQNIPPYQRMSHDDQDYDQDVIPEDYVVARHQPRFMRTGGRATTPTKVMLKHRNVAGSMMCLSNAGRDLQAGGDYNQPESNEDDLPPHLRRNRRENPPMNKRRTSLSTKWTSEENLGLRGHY

[10] = target: T3, RNA-binding protein pos-1 (Caenorhabditis elegans, UniProt G5EF15); test: inhibitors of POS-1/mex-3 RNA binding, dose response, biochemical, fluorescence polarization (AID 1964);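 further: purified POS-1 fused to maltose binding protein made in E. coli; potency of compounds blocking POS-1 binding to fluorescent RNA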
T3 sequence (G5EF15 whole entry): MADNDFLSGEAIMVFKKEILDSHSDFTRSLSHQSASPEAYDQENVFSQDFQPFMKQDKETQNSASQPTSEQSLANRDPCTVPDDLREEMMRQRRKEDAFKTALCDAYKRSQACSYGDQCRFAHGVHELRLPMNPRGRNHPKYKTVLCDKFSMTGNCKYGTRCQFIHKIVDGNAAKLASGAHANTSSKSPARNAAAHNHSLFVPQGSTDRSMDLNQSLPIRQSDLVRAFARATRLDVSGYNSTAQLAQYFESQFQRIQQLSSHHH

[11] = tested on: Streptococcus sp. 'group A'; test: growth inhibition of control SK(-) GAS strain, dose response, counter-screen for streptokinase expression inhibitor project, luminescence, kanamycin, BacTiterGlo, confirmation (AID 1900); format: functional, organism-based
[12] = target: Bifunctional protein GlmU (Mycobacterium tuberculosis, UniProt P9WMN3); test: Inhibitors of Mycobacterial Glucosamine-1-phosphate acetyl transferase (GlmU). Secondary screen.; parameters: species or system Mycobacterium tuberculosis H37Rv
[13] = target: Induced myeloid leukemia cell differentiation protein Mcl-1 (Homo sapiens, UniProt Q07820); format: functional
[14] = HEK293 cell cytotoxicity, dose response, cytotoxicity control, ATP luminescence, dry powder, set 3 (AID 743131); format: functional, cell-based
[15] = tested on: Cryptococcus neoformans; test: PubChem AID 686997; format: functional, organism-based
[16] = tested on: Cryptococcus neoformans; test: Cryptococcus growth inhibition by alamar blue – cell lysis, cherry-picks, replicate tests, mechanism study for C. neoformans antifungal project, dose response (AID 686999); format: functional, organism-based
[17] = tested on: HeLa; test: HeLa cell cytotoxicity, dose response, cytotoxicity control, ATP luminescence, cherry-pick samples (AID 687004); format: functional, cell-based; settings: Homo sapiens

Sequence of Induced myeloid leukemia cell differentiation protein Mcl-1 (Q07820 whole entry): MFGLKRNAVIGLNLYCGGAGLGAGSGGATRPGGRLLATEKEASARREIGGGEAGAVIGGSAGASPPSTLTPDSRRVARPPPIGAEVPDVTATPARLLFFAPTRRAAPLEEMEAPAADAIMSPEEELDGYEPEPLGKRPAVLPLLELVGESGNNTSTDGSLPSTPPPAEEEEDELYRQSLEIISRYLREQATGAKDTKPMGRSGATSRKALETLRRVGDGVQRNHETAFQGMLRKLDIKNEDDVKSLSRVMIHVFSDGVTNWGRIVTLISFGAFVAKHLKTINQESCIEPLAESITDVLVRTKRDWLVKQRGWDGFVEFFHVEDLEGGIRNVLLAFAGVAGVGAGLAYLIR
Sequence of Bifunctional protein GlmU (P9WMN3 whole entry): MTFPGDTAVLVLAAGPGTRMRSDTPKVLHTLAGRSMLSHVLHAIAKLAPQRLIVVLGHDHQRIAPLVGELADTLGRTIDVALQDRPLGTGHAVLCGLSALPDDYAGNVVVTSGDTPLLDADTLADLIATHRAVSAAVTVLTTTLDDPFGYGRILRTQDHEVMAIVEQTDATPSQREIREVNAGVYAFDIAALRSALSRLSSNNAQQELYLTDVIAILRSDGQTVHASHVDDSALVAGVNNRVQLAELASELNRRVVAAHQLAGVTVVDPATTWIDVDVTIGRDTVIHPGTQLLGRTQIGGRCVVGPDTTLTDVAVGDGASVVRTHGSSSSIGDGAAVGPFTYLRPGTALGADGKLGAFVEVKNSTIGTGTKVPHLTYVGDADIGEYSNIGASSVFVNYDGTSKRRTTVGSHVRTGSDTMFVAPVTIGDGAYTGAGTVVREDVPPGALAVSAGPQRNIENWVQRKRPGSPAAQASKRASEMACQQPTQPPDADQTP

Question: Which results are given for `COc1ccc(/C=N/NC(=O)c2ccncc2)cc1OC` [VERAZIDE]?
Answer: IC50 [1]: > 40 µM (inactive); IC50 [2]: 20 µM (inactive); IC50 [3]: > 33.3 µM (inactive)

Question: Which AC50 [4] does the source give for `Cc1cccc(S(=O)(=O)N2CCCCN3[C@@H](CO)[C@@H](c4ccc(C#CC(C)C)cc4)[C@@H]3C2)c1` here?
Answer: 15.1 µM (active)

Question: And the AC50 [5]?
Answer: 1.18 µM (active)

Question: Which AC50 [6] does the source give for `COC(=O)c1ccc(N2CCN(C(=O)c3ccc4c(c3)OCO4)CC2)cc1` here?
Answer: 12.4 µM (active)

Question: For `O=C1NC(=S)/C(=C\c2ccc(-c3ccccc3Cl)o2)S1`, which EC50 [7] is on record?
Answer: 14.7 µM (active)

Question: What about the EC50 [8] of the same compound?
Answer: 28.2 µM (active)

Question: And the EC50 [9]?
Answer: > 300 µM (not active)

Question: What about the EC50 [10] of the same compound?
Answer: > 300 µM (not active)

Question: What about the EC50 [11] of the same compound?
Answer: 3.42 µM (active)

Question: And the IC50 [12]?
Answer: 194 µM (active)

Question: And the IC50 [13]?
Answer: 3.31 µM (active)

Question: Which EC50 [7] does the source give for `Cc1ccc(OCCn2c(S)nc3ccccc32)c(C(C)C)c1` here?
Answer: 15.2 µM (active)

Question: And the EC50 [8]?
Answer: 17.2 µM (active)

Question: What about the AC50 [14] of the same compound?
Answer: 10.3 µM (active)

Question: What about the AC50 [15] of the same compound?
Answer: 20.7 µM (active)

Question: And the AC50 [16]?
Answer: 11.2 µM (active)

Question: And the EC50 [11]?
Answer: 2.73 µM (active)

Question: What about the AC50 [17] of the same compound?
Answer: 37.9 µM (active)

Source: ChEMBL document CHEMBL1201862, “PubChem BioAssay data set” (2004)
